Biological target: T1, acyl coenzyme-A:cholesterol-O-acyl transferase (ACAT; EC 2.3.1.26) (Rattus norvegicus, UniProt Q7TQM4)
T1 construct: microsomes obtained from the livers of rats; from tissue; host or cells: liver microsomes of rats fed 0.5% w/w cholesterol and 0.25% w/w cholic acid
T1 sequence (Q7TQM4 1-524): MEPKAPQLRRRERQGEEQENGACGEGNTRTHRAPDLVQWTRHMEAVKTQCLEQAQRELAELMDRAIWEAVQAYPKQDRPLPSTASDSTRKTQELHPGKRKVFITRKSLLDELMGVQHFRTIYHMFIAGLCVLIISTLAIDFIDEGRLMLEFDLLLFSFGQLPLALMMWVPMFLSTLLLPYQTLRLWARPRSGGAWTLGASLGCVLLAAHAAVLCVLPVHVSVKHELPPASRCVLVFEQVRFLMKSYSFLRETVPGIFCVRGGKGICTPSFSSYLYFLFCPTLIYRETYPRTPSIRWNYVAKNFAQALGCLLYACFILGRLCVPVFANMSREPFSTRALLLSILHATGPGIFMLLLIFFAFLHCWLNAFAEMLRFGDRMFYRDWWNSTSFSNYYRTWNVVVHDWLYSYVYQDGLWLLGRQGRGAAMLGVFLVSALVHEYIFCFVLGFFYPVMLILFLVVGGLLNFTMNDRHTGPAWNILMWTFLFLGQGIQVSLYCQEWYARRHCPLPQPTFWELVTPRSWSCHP
Assay: In vitro inhibition of acyl coenzyme-A:cholesterol-O-acyl transferase (ACAT) in liver microsomes of cholesterol/cholic acid-fed rats
Format: biochemical
Conditions: microsomes from livers of rats fed a diet containing 0.5% w/w cholesterol and 0.25% w/w cholic acid

CO[C@@H]1C[C@H](O)C[C@@H](CSc2nc(-c3ccccc3)c(-c3ccccc3)[nH]2)O1 [(I), (2S,4R,6S)-6-[(4,5-diphenylimidazol-2-yl)thiomethyl]-4-hydroxy-2-methoxy-3,4,5,6-tetrahydro-2H-pyran]
IC50: 50 nM

CO[C@H]1C[C@H](O)C[C@@H](CSc2nc(-c3ccccc3)c(-c3ccccc3)[nH]2)O1 [(II), (2R,4R,6S)-6-[(4,5-diphenylimidazol-2-yl)thiomethyl]-4-hydroxy-2-methoxy-3,4,5,6-tetrahydro-2H-pyran]
IC50: 91 nM
